Assay results from patent US20190119196A1, “COMPOUNDS FOR THE TREATMENT OF […]” (priority 2016, published 2019).
Structures can show the parent of a compound that is named as a salt. Where two headings read alike, the source gives them in different places.

Experiments:
L6-myotubes [1] = experiment: Measurement of intracellular cAMP levels (alpha screen cAMP kit); type: cell-based; conditions: agonist final concentration 1×10^−5, 15 min; differentiated cells; 1 mM IBMX
Method: (§1) L6-myoblasts were grown in Dulbecco's Modified Eagle's Medium (DMEM) containing 4,5 g/I glucose supplemented with 10% fetal bovine serum, 2 mM L-Glutamine, 50 U/ml penicillin, 50 μg/ml streptomycin and 10 mM HEPES. Cells were plated at 1×10^5 cells per ml in 24-well plates. After reaching 90% confluence the cells were grown in medium containing 2% FBS for 7 days where upon cells differentited into myotubes.
Differentiated cells were serum-starved over night and stimulated with agonist, final concentration 1×10−^5, for 15 min in stimulation buffer (HBSS supplemented with 1% BSA, 5 mM HEPES and 1 mM IBMX, pH 7,4) The medium was then aspirated and to end the reaction 100 μL of 95% EtOH was added to each well of a 24-well plate and cells were kept in −20° C. over night. The EtOH was let to evaporate and 500 μL of lysis buffer (1% BSA, 5 mM HEPES and 0,3% Tween-20, pH 7.4) was added to each well before put in −80° C. for 30 min and then kept in −20° C. Intracellular cAMP levels were detected using an alpha screen cAMP kit (6760635D from Perkin Elmer). The numerical values in the table are given as % increase over the basal level.

L6-myotubes [2] = experiment: Glucose uptake in differentiated L6-myotubes (3H-2-deoxy-glucose); type: cell-based; conditions: read-out: Biological example 1: glucose uptake, % increase over the basal level
Method: as §1
Differentiated L6-myotubes were serum-starved over night in medium containing 0.5% fatty-acid free BSA and stimulated with agonist, […], glucose free medium or PBS and another portion of agonist was added to glucose free medium. […] Cell lysate was mixed with scintillation buffer (Emulsifier Safe, Perkin Elmer and radioactivity detected in a β-counter (Tri-Carb 2800TR, Perkin Elmer). The numerical values in the table are given as % increase over the basal level.

human β2-adrenoceptor = biological target: T1, human β2-adrenoceptor (Homo sapiens, UniProt P07550); experiment: 3H-CGP 12177 whole cell β2 binding
T1 construct: expressed in transfected cells
T1 sequence (P07550 whole entry): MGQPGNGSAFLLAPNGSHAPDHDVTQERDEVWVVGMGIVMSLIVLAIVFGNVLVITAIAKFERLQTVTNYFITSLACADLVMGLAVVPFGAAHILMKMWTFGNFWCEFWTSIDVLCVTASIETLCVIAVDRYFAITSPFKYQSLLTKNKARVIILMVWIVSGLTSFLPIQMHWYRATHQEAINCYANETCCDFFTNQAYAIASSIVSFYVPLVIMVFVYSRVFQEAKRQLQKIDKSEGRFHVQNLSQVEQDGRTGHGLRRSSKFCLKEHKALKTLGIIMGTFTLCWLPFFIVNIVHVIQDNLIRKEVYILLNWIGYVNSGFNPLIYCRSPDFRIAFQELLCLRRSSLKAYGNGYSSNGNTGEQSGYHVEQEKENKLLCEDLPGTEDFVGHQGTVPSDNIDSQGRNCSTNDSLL
Method: ^3H-CGP 12177 Whole Cell β2 Binding
Chinese Hamster Ovary (CHO) cells stably expressing the human β2-adrenoceptor were grown in Dulbecco's modified Eagle's medium nutrient mix F12 (DMEM/F12) containing 10% fetal calf serum and 2 mM L-glutamine in a 37° C. humidified 5% CO2:95% air atmosphere. The cells were seeded (100 000 cells/mL) into white-sided, clear-bottomed 96-well isoplates and allowed to grow to confluence for the following day's experiment. Next day, the media was removed from each well of the isoplate. Aliquots of the test compounds (10^−2 M in DMSO) were diluted in DMEM/F12 containing 2 mM L-glutamine (serum-free media) to final concentration ranges of 10^−4 M to 10^−10 M and added to each well. The radioligand ^3H-CGP 12177 was diluted in the same medium (˜1 nM final well concentration) and added to each well. Propranolol and CGP 12177 (10 μM) were used to measure non-specific binding. The cells were incubated for 2 hours at 37° C. After incubation, the cells were washed twice by the addition and removal of 200 μL ice-cold phosphate-buffered saline (PBS). Cells were then lysed with Optiphase Supermix cocktail (100 μL/well) and a clear sealant top was applied to the plate. The plate was left overnight in the dark at room temperature, centrifuged (1000 rpm, 1 min) and measured in a MicroBeta2 Microplate Counter (Perkin Elmer) (10 minutes pre-incubation, 2 min counts/well).
All data points on each binding curve were measured in duplicates. Each 96-well plate also contained four determinations of total and non-specific binding. Non-specific binding was determined in the presence of CGP 12177 and propranolol (10 μM). […] All data points are measured in counts per minute (CPM) and converted into disintegrations per minute (DPM) by dividing the count rate (CPM) with the counting efficiency of the instruments detector (57%). The numerical values were obtained by using the GraphPad Prism 7 programme and are given as -log K (pKi) in the table.

[3] = agonist final concentration 1×10^−5, differentiated L6-myotubes, 50 nM 3H-2-deoxy-glucose
[4] = CHO cells stably expressing the human β2-adrenoceptor, ~1 nM 3H-CGP 12177, 2 hours at 37° C., read-out: Biological example 3: -log K (pKi), 3H-CGP 12177 whole cell β2 binding (converted)

Compound	Biological example 2: intracellular cAMP levels, % increase over the basal level (L6-myotubes [1])	activation (L6-myotubes [2]; [3])	Ki (human β2-adrenoceptor; [4])	activation (L6-myotubes [2])	Ki (human β2-adrenoceptor)
CCCCNCC(O)c1ccc(Cl)c(N)c1 (stereo not shown) [Example 34, 1-(3-Amino-4-chlorophenyl)-2-(butylamino)ethan-1-ol]	0%	20%	3.16 µM	–	–
CCCCNCC(O)c1ccc(Cl)c(O)c1 (stereo not shown) [Example 32, 5-(2-(Butylamino)-1-hydroxyethyl)-2-chlorophenol]	371%	53%	6.31 µM	–	–
CCCC(C)NCC(O)c1cc(Cl)c(O)c(Cl)c1 (mixture of isomers) [Example 27, 2,6-Dichloro-4-(1-hydroxy-2-(pentan-2-ylamino)ethyl)phenol]	86%	6%	1.26 µM	–	–
Oc1ccc(C(O)CNCCCC2CC2)cc1 (stereo not shown) [Example 23, 4-(2-((3-Cyclopropylpropyl)amino)-1-hydroxyethyl)phenol acetate]	–	28%	7.94 µM	–	–
CC(C)(C)NCC(O)c1ccc(O)cc1 (stereo not shown) [Example 4, 4-(2-(tert-Butylamino)-1-hydroxyethyl)phenol]	40%	–	1 µM	62%	–
CCCCCCCCNCC(O)c1ccc(O)cc1 (stereo not shown) [Example 18, 4-(1-Hydroxy-2-(octylamino)ethyl)phenol acetate]	−23%	26%	6.31 µM	–	–
Oc1ccc(C(O)CNCCCC(F)(F)F)cc1 (stereo not shown) [Example 24, 4-(1-Hydroxy-2-((4,4,4-trifluorobutyl)amino)ethyl)phenol acetate]	–	22%	10 µM	–	–
CCCCNCC(O)c1cc(F)c(N)c(F)c1 (stereo not shown) [Example 35, 1-(4-Amino-3,5-difluorophenyl)-2-(butylamino)ethan-1-ol]	6536%	65%	3.98 µM	–	–
Oc1ccc(C(O)CNC2CCCC2)cc1 (stereo not shown) [Example 7, 4-(2-(cyclopentylamino)-1-hydroxyethyl)phenol acetate]	1%	23%	5.01 µM	–	–
CCCC(C)NCC(O)c1cc(Cl)c(N)c(C(F)(F)F)c1 (mixture of isomers) [Example 31, 1-(4-amino-3-chloro-5-(trifluoromethyl)phenyl)-2-(pentan-2-ylamino)ethan-1-ol]	439%	36%	–	–	0.0316 µM
Oc1ccc(C(O)CNC23CC4CC(CC(C4)C2)C3)cc1 (stereo not shown) [Example 9, 4-(2-(adamantan-1-ylamino)-1-hydroxyethyl)phenol hemisulfate]	4%	18%	50.1 µM	–	–
CCCC(C)NCC(O)c1ccc(Cl)c(O)c1 (mixture of isomers) [Example 33, 2-Chloro-5-(1-hydroxy-2-(pentan-2-ylamino)ethyl)phenol]	1191%	55%	1 µM	–	–
CCCC(C)NCC(O)c1ccc(O)cc1 (stereo not shown) [Example 8, 4-(1-Hydroxy-2-(pentan-2-ylamino)ethyl)phenol acetate]	15%	–	20 µM	12%	–
CCCCNC[C@H](O)c1ccc(O)cc1 [Example 11, (R)-4-(2-(Butylamino)-1-hydroxyethyl)phenol hemisulfate]	10%	50%	39.8 µM	–	–
Oc1ccc(C(O)CNCC2CCCCC2)cc1 (stereo not shown) [Example 6, 4-(2-((Cyclohexylmethyl)amino)-1-hydroxyethyl)phenol]	3%	23%	10 µM	–	–
CCCCNCC(O)c1cc(Cl)c(O)c(Cl)c1 (stereo not shown) [Example 26, 4-(2-(Butylamino)-1-hydroxyethyl)-2,6-dichlorophenol]	−0.3%	–	25.1 µM	10%	–
CCCCNCC(O)c1cc(Cl)c(N)c(C(F)(F)F)c1 (stereo not shown) [Example 30, 1-(4-Amino-3-chloro-5-(trifluoromethyl)phenyl)-2-(butylamino)ethan-1-ol]	231%	50%	–	–	0.0794 µM
CCCCNCC(O)c1ccc(O)c(Cl)c1 (stereo not shown) [Example 20, 4-(2-(Butylamino)-1-hydroxyethyl)-2-chlorophenol]	−19%	12%	3.16 µM	–	–
CCCCNCC(O)c1cccc(Cl)c1 (stereo not shown) [Example 2, 2-(Butylamino)-1-(3-chlorophenyl)ethan-1-ol]	3%	27%	6.31 µM	–	–
CCCC(C)NCC(O)c1ccc(O)c(Cl)c1 (mixture of isomers) [Example 19, 2-Chloro-4-(1-hydroxy-2-(pentan-2-ylamino)ethyl)phenol]	−52%	30%	0.501 µM	–	–
CCCC(C)NCC(O)c1cc(Cl)c(N)c(Cl)c1 (mixture of isomers) [Example 28, 1-(4-Amino-3,5-dichlorophenyl)-2-(pentan-2-ylamino)ethan-1-ol trifluoroacetate]	2%	–	–	39%	0.398 µM
Oc1ccc(C(O)CNCCC2CCCCC2)cc1 (stereo not shown) [Example 16, 4-(2-((2-Cyclohexylethyl)amino)-1-hydroxyethyl)phenol acetate]	−56%	23%	5.01 µM	–	–
OC(CNCC1CCCCC1)c1ccccc1 (stereo not shown) [Example 10, 2-((cyclohexylmethyl)amino)-1-phenylethan-1-ol]	5%	39%	25.1 µM	–	–
CCCC(C)NC(C)C(O)c1ccc(O)cc1 (mixture of isomers) [Example 13, 4-(1-Hydroxy-2-(pentan-2-ylamino)propyl)phenol acetate]	−1%	42%	15.8 µM	–	–
CCCCNC(C)C(O)c1ccc(O)cc1 (stereo not shown) [Example 12, 4-(2-(Butylamino)-1-hydroxypropyl)phenol acetate]	190%	40%	7.94 µM	–	–
CCC(C)NCC(O)c1ccc(O)cc1 (stereo not shown) [Example 5, 4-(2-(sec-Butylamino)-1-hydroxyethyl)phenol]	18%	39%	5.01 µM	–	–
Oc1ccc(C(O)CNCCC2CC2)cc1 (stereo not shown) [Example 22, 4-(2-((2-Cyclopropylethyl)amino)-1-hydroxyethyl)phenol]	20%	30%	12.6 µM	–	–
Oc1ccc(C(O)CNCC2CC2)cc1 (stereo not shown) [Example 3, 4-(2-((Cyclopropylmethyl)amino)-1-hydroxyethyl)phenol]	18%	86%	25.1 µM	–	–
